Results taken from PMC13201158, “A generative artificial intelligence approach for peptide antibiotic optimization” (Nature Machine Intelligence, 2026).
No end group written: not given here.

Assays:
A. baumannii ATCC 19606 [1] = assay: Cytoplasmic membrane depolarization assay (DiSC3-5); format: cell-based, Acinetobacter baumannii; settings: A. baumannii ATCC 19606, peptides at their MIC, 60 min; compared with polymyxin B and levofloxacin
Description: The cytoplasmic membrane depolarization assay was performed using the membrane-potential-sensitive dye DiSC3-5. A. baumannii ATCC 19606 in the mid-logarithmic phase were washed and resuspended at 0.05 OD ml^−1 (optical value at 600 nm) in HEPES buffer (pH 7.2) containing 20 mmol l^−1 of glucose and 0.1 mol l^−1 of KCl. DiSC3-5 (20 μmol l^−1) was added to the bacterial suspension (100 μl per well) for 15 min to stabilize the fluorescence, which indicates the incorporation of the dye into the bacterial membrane, and then the peptides were mixed 1:1 with the bacteria to a final concentration corresponding to their MIC values. Membrane depolarization was then followed by reading changes in the fluorescence (λex = 622 nm, λem = 670 nm) over time for 60 min. The relative fluorescence was calculated using the untreated control (buffer + bacteria + fluorescent dye) and polymyxin B (positive control) as baselines and the following equation was applied to reflect the percentage of difference between the baselines and the sample: Percentagedifference=100×(fluorescencesample−fluorescenceuntreatedcontrol)/fluorescenceuntreatedcontrol.

A. baumannii ATCC 19606 [2] = format: cell-based, Acinetobacter baumannii; settings: ATCC 19606, 24 h
Text: In this study, we used the following pathogenic bacterial strains: A. baumannii ATCC 19606, E. coli ATCC 11775, E. coli AIC221 [E. coli MG1655 phnE_2::FRT (control strain for AIC 222)], E. coli AIC222 [E. coli MG1655 pmrA53 phnE_2::FRT (polymyxin resistant; colistin-resistant strain)], K. pneumoniae ATCC 13883, P. aeruginosa PAO1, P. aeruginosa PA14, Staphylococcus aureus ATCC 12600, S. aureus ATCC BAA-1556 (methicillin-resistant strain), Enterococcus faecalis ATCC 700802 (vancomycin-resistant strain), and Enterococcus faecium ATCC 700221 (vancomycin-resistant strain). Pseudomonas Isolation (P. aeruginosa strains) agar plates were exclusively used in the case of Pseudomonas species. All the other pathogens were grown in Luria–Bertani (LB) broth and on LB agar. In all the experiments, bacteria were inoculated from one-isolated colony and grown overnight (16 h) in a liquid medium at 37 °C. On the following day, inoculums were diluted 1:100 in fresh media and incubated at 37 °C to mid-logarithmic phase.
Broth microdilution assays were conducted to establish the MIC for each peptide[53]–[55]. Peptides were added to untreated polystyrene 96-well microtitre plates and serially diluted twofold in sterile water, ranging from 0 to 64 μmol l^−1. A bacterial inoculum at a concentration of 10^6 CFU ml^−1 in LB medium was then mixed in a 1:1 ratio with the peptide solution. […] Each assay was performed in three independent replicates.

[3] = tested on: human embryonic kidney (HEK293T) cells; assay: Cytotoxicity assay (MTT); format: cell-based; settings: 24 h exposure, concentration range tested 4–64 μmol l^−1 (method: 8–128 μmol l^−1), three biological replicates
Description: One day before the experiment, an aliquot of 100 μl of the cells at 50,000 cells ml^−1 was seeded into each well of the cell-treated 96-well plates used in the experiment. The attached HEK293T cells were then exposed to increasing concentrations of the peptides (8–128 μmol l^−1) for 24 h. After the incubation period, we performed the 3-(4,5-dimethylthiazol-2-yl)-2,5-diphenyltetrazolium bromide tetrazolium reduction assay (MTT assay)[55]. The MTT reagent was dissolved at 0.5 mg ml^−1 in the medium without phenol red and was used to replace cell culture supernatants containing the peptides (100 μl per well). The samples were incubated for 4 h at 37 °C in a humidified atmosphere containing 5% CO2, yielding the insoluble formazan salt. The resulting salts were then resuspended in hydrochloric acid (0.04 mol l^−1) in anhydrous isopropanol and quantified by spectrophotometric measurements of absorbance at 570 nm. All assays were done as three biological replicates.

Row | Sequence | MIC, A. baumannii ATCC 19606 (A. baumannii ATCC 19606 [2]) [µM] | cytoplasmic membrane depolarization (DiSC3-5 fluorescence) (A. baumannii ATCC 19606 [1]) | also measured
1 | HKIKINTIKLKIKLKI [Lophiosin-1-3] |  | effective depolarizers | 
2 | IASLHARSIARLLKRWINVHQGLGLKW [Mammuthusin-2-7] |  | highest depolarization activity within its family | 
3 | LRIKNHWIHFRVLAKALW [Hesperelin-3-9] |  |  | cytotoxicity against HEK293T cells [3]: generally non-toxic, except for hesperelin-3-9
4 | RNLVRWVAGLKLKKKVIKIKVGIGRWANIK [Hydrodamin-3-9] | 8 |  | 

More lines, main results first:

Row | MIC, A. baumannii ATCC 19606 (A. baumannii ATCC 19606 [2]) [µM] | Sequence | cytoplasmic membrane depolarization (DiSC3-5 fluorescence) (A. baumannii ATCC 19606 [1]) | also measured
5 | 64 | KRKRGLKLATALSLNNKF [Mylodonin-2] |  | 
6 | 32 | KTLKIIRLLF [Mammuthusin-3] |  | 
